According to publication PMC4468608, “A distinct p53 target gene set predicts for response to the selective p53–HDM2 inhibitor NVP-CGM097” (eLife, 2015):

Tested on: cell lines from the Cancer Cell Line Encyclopedia (CCLE)
Assay: High-throughput cell viability assay, CCLE cell line panel (n = 356)
Assay type: cell-based, human
Description: Cell lines were partitioned into sensitive and insensitive groups based on compound potency (IC50). […] All other cell lines were obtained from ATCC (American Type Culture Collection), DSMZ (Deutsche Sammlung von Mikroorganismen und Zellkulturen), and HSRRB (Health Science Research Resources Bank) and cultured in RPMI or Dulbecco's modified Eagle's medium plus 10% FBS (Invitrogen, Carlsbad, CA) at 37°C, 5% CO2.

[1] = cell line KMRC-1, kidney, TP53 WT
[2] = cell line KMS-27, haem._and_lymphoid_tissue, TP53 WT
[3] = cell line KMS-28BM, haem._and_lymphoid_tissue, TP53 WT
[4] = cell line KNS-42, central_nervous_system, TP53 MUT
[5] = cell line KYSE-410, oesophagus, TP53 MUT
[6] = cell line KYSE-450, oesophagus, TP53 MUT
[7] = cell line KYSE-510, oesophagus, TP53 MUT
[8] = cell line KYSE-520, oesophagus, TP53 MUT
[9] = cell line L-428, haem._and_lymphoid_tissue, TP53 MUT
[10] = cell line LN-229, central_nervous_system, TP53 WT
[11] = cell line MEL-HO, skin, TP53 WT
[12] = cell line MHH-ES-1, bone, TP53 MUT
[13] = cell line Malme-3M, skin, TP53 WT
[14] = cell line NCI-H460, lung, TP53 WT
[15] = cell line NCI-H647, lung, TP53 MUT
[16] = cell line NCI-H1299, lung, TP53 WT
[17] = cell line NCI-H1341, lung, TP53 WT
[18] = cell line NCI-H1650, lung, TP53 MUT
[19] = cell line NCI-H1693, lung, TP53 MUT
[20] = cell line NCI-H1703, lung, TP53 MUT
[21] = cell line OAW42, ovary, TP53 WT
[22] = cell line OE19, oesophagus, TP53 MUT
[23] = cell line OVCAR-8, ovary, TP53 MUT
[24] = cell line PE/CA-PJ41 (clone D2), upper_aerodigestive_tract, TP53 MUT
[25] = cell line PEER, haem._and_lymphoid_tissue, TP53 MUT
[26] = cell line SCaBER, urinary_tract, TP53 MUT
[27] = cell line SK-HEP-1, liver, TP53 WT
[28] = cell line SK-MEL-5, skin, TP53 WT
[29] = cell line SK-MEL-24, skin, TP53 WT
[30] = cell line SNG-M, endometrium, TP53 WT
[31] = cell line SNU-423, liver, TP53 MUT
[32] = cell line SW403, large_intestine, TP53 MUT
[33] = cell line SW 780, urinary_tract, TP53 WT
[34] = cell line SW 1573, lung, TP53 WT
[35] = cell line TE-9, oesophagus, TP53 MUT
[36] = cell line TE-11, oesophagus, TP53 MUT
[37] = cell line UM-UC-3, urinary_tract, TP53 MUT
[38] = cut-off IC50 4 µM, 356 cell lines

COc1cc2c(cc1OC(C)C)[C@H](c1ccc(Cl)cc1)N(c1ccc(N(C)C[C@H]3CC[C@H](N4CCNC(=O)C4)CC3)cc1)C(=O)C2 [NVP-CFC218]
NVP- CFC218 sensitivity call (cell line JHOS-2, ovary, TP53 MUT): insensitive (Sensitivity call for each compound was applied according to a cut-off of 4 µM for IC50 and -50% for Amax) | NVP- CFC218 Amax (%) [1]: -42.40% | NVP- CFC218 sensitivity call [1]: insensitive (Sensitivity call for each compound was applied according to a cut-off of 4 µM for IC50 and -50% for Amax) | NVP- CFC218 Amax (%) [2]: -1.14% | NVP- CFC218 sensitivity call [2]: insensitive (Sensitivity call for each compound was applied according to a cut-off of 4 µM for IC50 and -50% for Amax) | NVP- CFC218 Amax (%) [3]: 3.74% | NVP- CFC218 sensitivity call [3]: insensitive (Sensitivity call for each compound was applied according to a cut-off of 4 µM for IC50 and -50% for Amax) | NVP- CFC218 Amax (%) [4]: -8.48% | NVP- CFC218 sensitivity call [4]: insensitive (Sensitivity call for each compound was applied according to a cut-off of 4 µM for IC50 and -50% for Amax) | NVP- CFC218 Amax (%) [5]: -24.33% | NVP- CFC218 sensitivity call [5]: insensitive (Sensitivity call for each compound was applied according to a cut-off of 4 µM for IC50 and -50% for Amax) | NVP- CFC218 Amax (%) [6]: -1.37% | NVP- CFC218 sensitivity call [6]: insensitive (Sensitivity call for each compound was applied according to a cut-off of 4 µM for IC50 and -50% for Amax) | NVP- CFC218 Amax (%) [7]: 3.18% | NVP- CFC218 sensitivity call [7]: insensitive (Sensitivity call for each compound was applied according to a cut-off of 4 µM for IC50 and -50% for Amax) | NVP- CFC218 Amax (%) [8]: -5.52% | NVP- CFC218 sensitivity call [8]: insensitive (Sensitivity call for each compound was applied according to a cut-off of 4 µM for IC50 and -50% for Amax) | NVP- CFC218 Amax (%) [9]: -26.31% | NVP- CFC218 sensitivity call [9]: insensitive (Sensitivity call for each compound was applied according to a cut-off of 4 µM for IC50 and -50% for Amax) | NVP- CFC218 Amax (%) [10]: -42.01% | NVP- CFC218 sensitivity call [10]: insensitive (Sensitivity call for each compound was applied according to a cut-off of 4 µM for IC50 and -50% for Amax) | NVP- CFC218 Amax (%) [11]: -40.38% | NVP- CFC218 sensitivity call [11]: insensitive (Sensitivity call for each compound was applied according to a cut-off of 4 µM for IC50 and -50% for Amax) | NVP- CFC218 Amax (%) [12]: 1.25% | NVP- CFC218 sensitivity call [12]: insensitive (Sensitivity call for each compound was applied according to a cut-off of 4 µM for IC50 and -50% for Amax) | NVP- CFC218 Amax (%) [13]: -39.40% | NVP- CFC218 sensitivity call [13]: insensitive (Sensitivity call for each compound was applied according to a cut-off of 4 µM for IC50 and -50% for Amax) | NVP- CFC218 Amax (%) [14]: 0.31% | NVP- CFC218 sensitivity call [14]: insensitive (Sensitivity call for each compound was applied according to a cut-off of 4 µM for IC50 and -50% for Amax) | NVP- CFC218 Amax (%) [15]: -29.54% | NVP- CFC218 sensitivity call [15]: insensitive (Sensitivity call for each compound was applied according to a cut-off of 4 µM for IC50 and -50% for Amax) | NVP- CFC218 Amax (%) [16]: 0.83% | NVP- CFC218 sensitivity call [16]: insensitive (Sensitivity call for each compound was applied according to a cut-off of 4 µM for IC50 and -50% for Amax) | NVP- CFC218 Amax (%) [17]: -36.36% | NVP- CFC218 sensitivity call [17]: insensitive (Sensitivity call for each compound was applied according to a cut-off of 4 µM for IC50 and -50% for Amax) | NVP- CFC218 Amax (%) [18]: 2.72% | NVP- CFC218 sensitivity call [18]: insensitive (Sensitivity call for each compound was applied according to a cut-off of 4 µM for IC50 and -50% for Amax) | NVP- CFC218 Amax (%) [19]: -4.47% | NVP- CFC218 sensitivity call [19]: insensitive (Sensitivity call for each compound was applied according to a cut-off of 4 µM for IC50 and -50% for Amax) | NVP- CFC218 Amax (%) [20]: -40.27% | NVP- CFC218 sensitivity call [20]: insensitive (Sensitivity call for each compound was applied according to a cut-off of 4 µM for IC50 and -50% for Amax) | NVP- CFC218 Amax (%) [21]: -7.13% | NVP- CFC218 sensitivity call [21]: insensitive (Sensitivity call for each compound was applied according to a cut-off of 4 µM for IC50 and -50% for Amax) | NVP- CFC218 Amax (%) [22]: 14.48% | NVP- CFC218 sensitivity call [22]: insensitive (Sensitivity call for each compound was applied according to a cut-off of 4 µM for IC50 and -50% for Amax) | NVP- CFC218 Amax (%) [23]: -30.79% | NVP- CFC218 sensitivity call [23]: insensitive (Sensitivity call for each compound was applied according to a cut-off of 4 µM for IC50 and -50% for Amax) | NVP- CFC218 Amax (%) [24]: -0.29% | NVP- CFC218 sensitivity call [24]: insensitive (Sensitivity call for each compound was applied according to a cut-off of 4 µM for IC50 and -50% for Amax) | NVP- CFC218 Amax (%) [25]: -46.94% | NVP- CFC218 sensitivity call [25]: insensitive (Sensitivity call for each compound was applied according to a cut-off of 4 µM for IC50 and -50% for Amax) | NVP- CFC218 Amax (%) [26]: 0.88% | NVP- CFC218 sensitivity call [26]: insensitive (Sensitivity call for each compound was applied according to a cut-off of 4 µM for IC50 and -50% for Amax) | NVP- CFC218 Amax (%) [27]: -41.72% | NVP- CFC218 sensitivity call [27]: insensitive (Sensitivity call for each compound was applied according to a cut-off of 4 µM for IC50 and -50% for Amax) | NVP- CFC218 Amax (%) [28]: -47.83% | NVP- CFC218 sensitivity call [28]: insensitive (Sensitivity call for each compound was applied according to a cut-off of 4 µM for IC50 and -50% for Amax) | NVP- CFC218 Amax (%) [29]: -47.55% | NVP- CFC218 sensitivity call [29]: insensitive (Sensitivity call for each compound was applied according to a cut-off of 4 µM for IC50 and -50% for Amax) | NVP- CFC218 Amax (%) [30]: -25.75% | NVP- CFC218 sensitivity call [30]: insensitive (Sensitivity call for each compound was applied according to a cut-off of 4 µM for IC50 and -50% for Amax) | NVP- CFC218 Amax (%) [31]: -5.91% | NVP- CFC218 sensitivity call [31]: insensitive (Sensitivity call for each compound was applied according to a cut-off of 4 µM for IC50 and -50% for Amax) | NVP- CFC218 Amax (%) [32]: 51.39% | NVP- CFC218 sensitivity call [32]: insensitive (Sensitivity call for each compound was applied according to a cut-off of 4 µM for IC50 and -50% for Amax) | NVP- CFC218 Amax (%) [33]: -38.52% | NVP- CFC218 sensitivity call [33]: insensitive (Sensitivity call for each compound was applied according to a cut-off of 4 µM for IC50 and -50% for Amax) | NVP- CFC218 Amax (%) [34]: -48.52% | NVP- CFC218 sensitivity call [34]: insensitive (Sensitivity call for each compound was applied according to a cut-off of 4 µM for IC50 and -50% for Amax) | NVP- CFC218 Amax (%) (cell line Sq-1, lung, TP53 WT): 4.40% | NVP- CFC218 sensitivity call (cell line Sq-1, lung, TP53 WT): insensitive (Sensitivity call for each compound was applied according to a cut-off of 4 µM for IC50 and -50% for Amax) | NVP- CFC218 Amax (%) [35]: -6.46% | NVP- CFC218 sensitivity call [35]: insensitive (Sensitivity call for each compound was applied according to a cut-off of 4 µM for IC50 and -50% for Amax) | NVP- CFC218 Amax (%) [36]: -3.43% | NVP- CFC218 sensitivity call [36]: insensitive (Sensitivity call for each compound was applied according to a cut-off of 4 µM for IC50 and -50% for Amax) | NVP- CFC218 Amax (%) [37]: -27.23% | NVP- CFC218 sensitivity call [37]: insensitive (Sensitivity call for each compound was applied according to a cut-off of 4 µM for IC50 and -50% for Amax) | NVP- CFC218 Amax (%) (cell line WM-88, skin, TP53 WT): -37.15% | NVP- CFC218 sensitivity call (cell line WM-88, skin, TP53 WT): insensitive (Sensitivity call for each compound was applied according to a cut-off of 4 µM for IC50 and -50% for Amax) | Number of insensitive cell lines, p53MUT [38]: 252 | Number of insensitive cell lines, p53WT [38]: 57 | Number of insensitive cell lines, total [38]: 309 | Number of sensitive cell lines, p53MUT [38]: 4 | Number of sensitive cell lines, p53WT [38]: 43 | baseline response rate without prior stratification (estimated from the NVP-CFC218 sensitivity data): 19% | maximal compound effect level (Amax) (for the sensitive cell lines): ≤ −50%
